The text below walks through data of patent publication US9138433B2, “Indole alkaloid compounds as melanogenesis promoters and uses thereof” (NEW YORK UNIVERSITY, priority 2010, dated 2015).

The test system of one test is melan-a cells. The experiment in a line: Melanin assay in cultured murine melanocytes (melan-a). To be noted: melanin content, 72 hours incubation. Format: cell-based. The method, then: The Spectrum Collection library consisting of 2000 drug compounds or natural products was screened to identify novel pigmentation inhibitors or stimulators in cultured murine melanocytes (melan-a). Compounds were dissolved in dimethylsulfoxide (DMSO) to a final concentration of 10 mM. Screening was performed with cultured melanocytes in 24-well plates followed by melanin assay (see below). A minimum change of 50% in melanin formation was established as significant for a pigmentation inhibitor or stimulator. DMSO was used as a negative control and the widely used depigmenting agent, hydroquinone, was used as a positive control on every plate. Primary screening was performed at a final concentration of 1 μM and potential candidates from the primary screening were reconfirmed in duplicate at final concentrations of 1 and 5 μM.
Melan-a cells were plated at 5×10^4 cells per well in 1 ml of culture media in 24-well plates the day before adding the library compounds. All compounds were added at the indicated final concentrations. Cells were harvested after 72 hours of incubation, and melanin assay was performed.
For further test and mechanism of action studies, the compounds were purchased from either Sigma or MicroSource. These compounds were dissolved in dimethylsulfoxide (DMSO) to a final concentration of 10 mM, and were tested for their effect on melanin synthesis at the indicated final concentrations.
For the primary and secondary screening, cells were harvested and dissolved in 200 μl of 2N NaOH in 20% DMSO at 70° C. A 180-μl aliquot of the resulting solution was measured for absorbance at 490 nm.
Cells are harvested in extraction buffer (1% Triton X-100, 50 mM Tris, 2 mM EDTA, 150 mM NaCl, pH 7.5) containing a complete protease inhibitor cocktail (Roche). The lysates were centrifuged at 14,000 rpm for 10 minutes at 4° C. BCA protein assay kit (Pierce) was used to measure the protein concentrations of the supernatants, and bovine serum albumin was used as a standard. The remaining pellets were incubated with 100 μl ethanol-ether (1:1) for 10 minutes at room temperature. After removing the ethanol-ether, the pellets were dissolved in 200 μl of 2N NaOH in 20% DMSO at 70° C. A 180-μl aliquot of the resulting solution was measured for absorbance at 490 nm. The melanin contents were normalized to the total amount of protein.

For test [1], the system named is Tyr, Tryp-1 or Lamp-1 in melan-a cells. The experiment in a line: Sub-cellular localization of Tyr, Tyrp-1, Lamp-1 in melan-a cells (immunofluorescence). As to conditions: 10 μM, 72 hrs at 37° C., FIGS. 4A and 4B. Format: cell-based, murine. The method, then:
Cells were cultured on cover slips, incubated with or without 10 μM pubescine for 72 hrs at 37° C. The cells were fixed with −20° C. methanol for 5 min and stained by immunofluorescence with antibodies for Tyr, Tyrp-1 and/or Lamp-1. The slides were analyzed with a confocal microscope (LSM 510, Zeiss).

Test [2] deals with Tyr gene family proteins and gp100 in melan-a cells. The experiment in a line: Cellular levels of Tyr gene family proteins and gp100 in melan-a cells (immunoblot). Format: cell-based, murine. As to conditions: various concentrations, 72 hrs, FIG. 3. As to the method: Melan-a cells were incubated with various concentrations of pubescine for 72 hrs. Cell lysates were prepared and separated by 7.5% sodium dodecyl sulfate-polyacrylamide gel and transferred to Immobilon-P membranes. Tyrosinase gene family proteins were detected with antibodies against each protein. The results are set forth in the gel of FIG. 3.
Background: In western blotting, separated proteins are transferred to a membrane and probed.

The test system of test [3] is Asian skin equivalent (MEL-A). The experiment in a line: MelanoDerm pigmentation assay, Asian skin equivalent (MEL-A). Format: cell-based, human. As to the method: MelanoDerm™, made by MatTek Corp., is a viable reconstituted three-dimensional human skin equivalent containing normal melanocytes and keratinocytes that are derived from African-American (MEL-B), Asian (MEL-A) or Caucasian (MEL-C) donors. Both MEL-A and MEL-B tissues were used in the current study, and they were maintained in the NMM-113 medium as recommended by the manufacturer.
Pubescine (from Sigma) was dissolved in 30% ethanol: 70% propylene glycol to a final concentration of 1.0 mM (equal to 356.6 μg/ml), and this was maintained constant and used on all samples tested. A 25 μl of its aliquot was applied topically to the MelanoDerm™ tissue (MEL-B) on Days 0, 1, 3, 6, 8 and 10. The MelanoDerm™ tissues were fed every other day with 5 ml fresh NMM-113. Prior to each application, the tissues were washed with 1 ml PBS to remove any residual test compound. Tissues were fixed on Days 10 and 13 for microscopic analysis and histological evaluation. In addition, duplicate tissues were frozen on Days 10 and 13 for the melanin assay.
Similar experiments were performed on Asian skin equivalent (MEL-A) except: the treatments were applied on Days 0, 1, 3, 6, 8, 10 and 13. Tissues were taken out on Days 13 and 16 for the various assays. […]
Procedure 1: the effects of pubescine on melanin synthesis in MEL-A or B were evaluated by light microscopy (views from the top surface of the tissue). […]

In the test on melan-a cells, `COC(=O)[C@H]1[C@H]2C[C@@H]3c4[nH]c5cc(OC)ccc5c4CCN3C[C@H]2C[C@@H](OC(=O)c2cc(OC)c(OC)c(OC)c2)[C@@H]1OC` [ID 4, Reserpine, reference compound] displayed a % after treatment @ 1 μM of 117% and a % after treatment @ 5 μM of 133%.
The like results for `CC[C@H]1[C@@H]2C[C@H]3[C@@H]4N(C)c5ccccc5[C@]45C[C@@H]([C@H]2[C@H]5O)N3[C@@H]1O` [ID 2, Ajmaline, reference compound] were, in that order, 117% and 206%.
The like results for `COC(=O)[C@H]1[C@H]2C[C@H]3c4[nH]c5ccccc5c4CCN3C[C@@H]2CC[C@@H]1O` [ID 1, Corynanthine] were, in that order, 111% and 211%.
In the test on melan-a cells, `COc1ccc2c3c([nH]c2c1)[C@@H]1C[C@H]2[C@@H](C[C@@H](O)[C@H](OC)[C@H]2C(=O)O)CN1CC3` [ID 5, Reserpic Acid] showed a % after treatment @ 1 μM of 111% and a % after treatment @ 5 μM of 217%.
In the test on melan-a cells, `COC(=O)C1=CO[C@@H](C)[C@H]2CN3CCc4c([nH]c5ccccc45)[C@@H]3C[C@H]12` [ID 3, Ajmalicine, reference compound] registered a % after treatment @ 1 μM of 106% and a % after treatment @ 5 μM of 133%.
In the test with melan-a cells, `COC(=O)C1=CO[C@@H](C)[C@H]2CN3CCc4c([nH]c5cc(OC)ccc45)[C@@H]3C[C@H]12` [ID 6, Pubescine] displayed a % after treatment @ 1 μM of 172% and a % after treatment @ 5 μM of 267%. Moreover, in test [1], the “Sub-cellular localization of Tyr, Tryp-1 or Lamp-1” value is given as “does not alter the sub-cellular localization”. The “Cellular levels of tyrosinase family proteins and gp100” value in test [2] is “increases cellular levels of tyrosinase family proteins and gp100 in a dose-dependent manner”. Also, the “Fontana-Masson staining, melanin content” value in test [3] (Asian skin equivalent (MEL-A), FIG. 6) is recorded as “increase in the melanin content”. In addition, the “Melanin content increase of Asian skin equivalent (MEL-A)” value in test [3] (pubescine 1.0 mM topical, 25 μl, FIG. 7) is around 40%.
